{"source": "PubChem BioAssay AID1259407", "about": "(Chemical Carcinogenesis Research Information System (CCRIS), 2018)", "system": "CCRIS mutagenicity, Ames/micronucleus/aberration tests", "test": "CCRIS mutagenicity studies", "key": {"[1]": {"details": "Test System: AMES SALMONELLA TYPHIMURIUM, Strain/Indicator: TA98, Metabolic Activation: NONE, Method: STANDARD PLATE"}, "[2]": {"details": "Test System: AMES SALMONELLA TYPHIMURIUM, Strain/Indicator: TA98, Metabolic Activation: RAT, LIVER, S-9, AROCLOR 1254, Method: STANDARD PLATE"}, "[3]": {"details": "Test System: AMES SALMONELLA TYPHIMURIUM, Strain/Indicator: TA100, Metabolic Activation: NONE, Method: STANDARD PLATE"}, "[4]": {"details": "Test System: AMES SALMONELLA TYPHIMURIUM, Strain/Indicator: TA100, Metabolic Activation: RAT, LIVER, S-9, AROCLOR 1254, Method: STANDARD PLATE"}, "[5]": {"details": "Test System: AMES SALMONELLA TYPHIMURIUM, Strain/Indicator: TA1535, Metabolic Activation: NONE, Method: STANDARD PLATE"}}, "note": "Calls of active or inactive are those of the source. How the calls were made is not given here.", "data": [{"compound": "O=[N+]([O-])c1ccc2c3c1ccc1cccc(c13)[C@@H]1O[C@H]21", "values": [{"measurement": "mutagenic call", "setting": "Test System: AMES SALMONELLA TYPHIMURIUM, Strain/Indicator: TA98(1,8-DNP6), Metabolic Activation: RAT, LIVER, S-9, PHENOBARBITAL AND 5,6-BENZOFLAVONE, Method: PREINCUBATION", "result": "active; positive"}, {"measurement": "mutagenic call", "setting": "Test System: AMES SALMONELLA TYPHIMURIUM, Strain/Indicator: TA98(NR), Metabolic Activation: NONE, Method: PREINCUBATION", "result": "active; positive"}, {"measurement": "mutagenic call", "setting": "Test System: AMES SALMONELLA TYPHIMURIUM, Strain/Indicator: TA98, Metabolic Activation: NONE, Method: PREINCUBATION", "result": "active; positive"}, {"measurement": "mutagenic call", "setting": "Test System: AMES SALMONELLA TYPHIMURIUM, Strain/Indicator: TA98, Metabolic Activation: RAT, LIVER, S-9, PHENOBARBITAL AND 5,6-BENZOFLAVONE, Method: PREINCUBATION", "result": "active; positive"}, {"measurement": "mutagenic call", "setting": "Test System: AMES SALMONELLA TYPHIMURIUM, Strain/Indicator: TA100, Metabolic Activation: NONE, Method: PREINCUBATION", "result": "active; positive"}, {"measurement": "mutagenic call", "setting": "Test System: AMES SALMONELLA TYPHIMURIUM, Strain/Indicator: TA100, Metabolic Activation: RAT, LIVER, S-9, PHENOBARBITAL AND 5,6-BENZOFLAVONE, Method: PREINCUBATION", "result": "active; positive"}, {"measurement": "mutagenic call", "setting": "Test System: CHINESE HAMSTER OVARY, Strain/Indicator: CHO (HGPRT)/6-THIOGUANINE, Metabolic Activation: NONE, Method: STANDARD PLATE", "result": "active; positive"}, {"measurement": "mutagenic call", "setting": "Test System: CHINESE HAMSTER OVARY, Strain/Indicator: CHO (HGPRT)/6-THIOGUANINE, Metabolic Activation: RAT, LIVER, S-9, AROCLOR 1254, Method: STANDARD PLATE", "result": "active; positive"}, {"measurement": "mutagenic call", "setting": "Test System: UDS RODENT HEPATOCYTES, Strain/Indicator: THY INCORP, Metabolic Activation: NONE, Method: AUTORADIOGRAPHY", "result": "active; positive"}]}, {"compound": "O[C@@H]1c2ccccc2-c2ccc3ccccc3c2[C@H]1O", "values": [{"measurement": "mutagenic call", "setting": "[1]", "result": "inactive; negative"}, {"measurement": "mutagenic call", "setting": "[2]", "result": "inactive; negative"}, {"measurement": "mutagenic call", "setting": "[3]", "result": "inactive; negative"}, {"measurement": "mutagenic call", "setting": "[4]", "result": "inactive; negative"}]}, {"compound": "N#Cc1ccc(C(=O)ON(OCc2ccccc2)C(=O)c2ccccc2)cc1", "values": [{"measurement": "mutagenic call", "setting": "[3]", "result": "active; positive"}, {"measurement": "mutagenic call", "setting": "Test System: AMES SALMONELLA TYPHIMURIUM, Strain/Indicator: TA100, Metabolic Activation: RAT, S-9, AROCLOR, Method: STANDARD PLATE", "result": "active; positive"}]}, {"compound": "O=C(Cn1c(=O)sc2ccccc21)OCc1ccccc1", "values": [{"measurement": "mutagenic call", "setting": "Test System: AMES SALMONELLA TYPHIMURIUM, Strain/Indicator: TA97, Metabolic Activation: NONE, Method: STANDARD PLATE", "result": "inactive; negative"}, {"measurement": "mutagenic call", "setting": "Test System: AMES SALMONELLA TYPHIMURIUM, Strain/Indicator: TA97, Metabolic Activation: RAT, LIVER, S-9, DELOR 103, Method: STANDARD PLATE", "result": "inactive; negative"}, {"measurement": "mutagenic call", "setting": "[1]", "result": "inactive; negative"}, {"measurement": "mutagenic call", "setting": "Test System: AMES SALMONELLA TYPHIMURIUM, Strain/Indicator: TA98, Metabolic Activation: RAT, LIVER, S-9, DELOR 103, Method: STANDARD PLATE", "result": "inactive; negative"}, {"measurement": "mutagenic call", "setting": "[3]", "result": "inactive; negative"}, {"measurement": "mutagenic call", "setting": "Test System: AMES SALMONELLA TYPHIMURIUM, Strain/Indicator: TA100, Metabolic Activation: RAT, LIVER, S-9, DELOR 103, Method: STANDARD PLATE", "result": "inactive; negative"}, {"measurement": "mutagenic call", "setting": "[5]", "result": "inactive; negative"}, {"measurement": "mutagenic call", "setting": "Test System: AMES SALMONELLA TYPHIMURIUM, Strain/Indicator: TA1535, Metabolic Activation: RAT, LIVER, S-9, DELOR 103, Method: STANDARD PLATE", "result": "inactive; negative"}, {"measurement": "mutagenic call", "setting": "Test System: AMES SALMONELLA TYPHIMURIUM, Strain/Indicator: TA1538, Metabolic Activation: NONE, Method: STANDARD PLATE", "result": "inactive; negative"}, {"measurement": "mutagenic call", "setting": "Test System: AMES SALMONELLA TYPHIMURIUM, Strain/Indicator: TA1538, Metabolic Activation: RAT, LIVER, S-9, DELOR 103, Method: STANDARD PLATE", "result": "inactive; negative"}]}, {"compound": "O=[N+]([O-])c1cccc2c(Cl)nsc12", "values": [{"measurement": "mutagenic call", "setting": "[3]", "result": "active; positive"}]}, {"compound": "COc1ccc(C(c2ccc(OC)cc2)C(Cl)(Cl)Cl)cc1", "values": [{"measurement": "mutagenic call", "setting": "Test System: CHINESE HAMSTER OVARY, Strain/Indicator: CHO-K1-BH4 (HGPRT)/6-THIOGUANINE, Metabolic Activation: NONE, Method: SUSPENSION/PLATE", "result": "inactive; negative"}, {"measurement": "mutagenic call", "setting": "Test System: CHINESE HAMSTER OVARY, Strain/Indicator: CHO-K1-BH4 (HGPRT)/6-THIOGUANINE, Metabolic Activation: S-9, Method: SUSPENSION/PLATE", "result": "inactive; negative"}, {"measurement": "mutagenic call", "setting": "Test System: E. COLI, Strain/Indicator: WP2 UVRA, Metabolic Activation: HAMSTER, LIVER, S-9, AROCLOR 1254, Method: STANDARD PLATE", "result": "inactive; negative"}, {"measurement": "mutagenic call", "setting": "Test System: E. COLI, Strain/Indicator: WP2 UVRA, Metabolic Activation: HAMSTER, LIVER, S-9, Method: STANDARD PLATE", "result": "inactive; negative"}, {"measurement": "mutagenic call", "setting": "Test System: E. COLI, Strain/Indicator: WP2 UVRA, Metabolic Activation: MOUSE, LIVER, S-9, AROCLOR 1254, Method: STANDARD PLATE", "result": "inactive; negative"}, {"measurement": "mutagenic call", "setting": "Test System: E. COLI, Strain/Indicator: WP2 UVRA, Metabolic Activation: MOUSE, LIVER, S-9, Method: STANDARD PLATE", "result": "inactive; negative"}, {"measurement": "mutagenic call", "setting": "Test System: E. COLI, Strain/Indicator: WP2 UVRA, Metabolic Activation: NONE, Method: STANDARD PLATE", "result": "inactive; negative"}, {"measurement": "mutagenic call", "setting": "Test System: E. COLI, Strain/Indicator: WP2 UVRA, Metabolic Activation: RAT, LIVER, S-9, AROCLOR 1254, Method: STANDARD PLATE", "result": "inactive; negative"}, {"measurement": "mutagenic call", "setting": "Test System: E. COLI, Strain/Indicator: WP2 UVRA, Metabolic Activation: RAT, LIVER, S-9, Method: STANDARD PLATE", "result": "inactive; negative"}, {"measurement": "mutagenic call", "setting": "Test System: MOUSE LYMPHOMA, Strain/Indicator: L5178Y (TK+/TK-), Metabolic Activation: NONE, Method: SUSPENSION/PLATE", "result": "inactive; negative"}, {"measurement": "mutagenic call", "setting": "Test System: MOUSE LYMPHOMA, Strain/Indicator: L5178Y (TK+/TK-), Metabolic Activation: RAT, LIVER, S-9, AROCLOR 1254, Method: SUSPENSION/PLATE", "result": "active; positive"}, {"measurement": "mutagenic call", "setting": "Test System: MOUSE LYMPHOMA, Strain/Indicator: L5178Y (TK+/TK-), Metabolic Activation: RAT, LIVER, S-9, Method: SUSPENSION/PLATE", "result": "active; positive"}, {"measurement": "mutagenic call", "setting": "Test System: MOUSE LYMPHOMA, Strain/Indicator: L5178Y (TK+/TK-), Metabolic Activation: S-9, Method: SUSPENSION/PLATE", "result": "active; positive"}]}, {"compound": "N[C@@H]1C[C@H]1c1ccccc1", "values": [{"measurement": "mutagenic call", "setting": "[1]", "result": "inactive; negative"}, {"measurement": "mutagenic call", "setting": "[2]", "result": "inactive; negative"}, {"measurement": "mutagenic call", "setting": "[3]", "result": "inactive; negative"}, {"measurement": "mutagenic call", "setting": "[4]", "result": "inactive; negative"}, {"measurement": "mutagenic call", "setting": "[5]", "result": "inactive; negative"}, {"measurement": "mutagenic call", "setting": "Test System: AMES SALMONELLA TYPHIMURIUM, Strain/Indicator: TA1535, Metabolic Activation: RAT, LIVER, S-9, AROCLOR 1254, Method: STANDARD PLATE", "result": "inactive; negative"}, {"measurement": "mutagenic call", "setting": "Test System: AMES SALMONELLA TYPHIMURIUM, Strain/Indicator: TA1537, Metabolic Activation: NONE, Method: STANDARD PLATE", "result": "inactive; negative"}, {"measurement": "mutagenic call", "setting": "Test System: AMES SALMONELLA TYPHIMURIUM, Strain/Indicator: TA1537, Metabolic Activation: RAT, LIVER, S-9, AROCLOR 1254, Method: STANDARD PLATE", "result": "inactive; negative"}]}, {"compound": "O=C(c1ccccc1)[C@H]1O[C@H]1c1ccc(F)cc1", "values": [{"measurement": "mutagenic call", "setting": "Test System: AMES SALMONELLA TYPHIMURIUM, Strain/Indicator: TA98, Metabolic Activation: NONE, Method: PREINCUBATION (PHOSPHATE-BUFFERED KCL OR SOLUTE-FREE WATER MEDIA)", "result": "inactive; negative"}, {"measurement": "mutagenic call", "setting": "[1]", "result": "inactive; negative"}, {"measurement": "mutagenic call", "setting": "[2]", "result": "inactive; negative"}, {"measurement": "mutagenic call", "setting": "Test System: AMES SALMONELLA TYPHIMURIUM, Strain/Indicator: TA100, Metabolic Activation: NONE, Method: PREINCUBATION (PHOSPHATE-BUFFERED KCL OR SOLUTE-FREE WATER MEDIA)", "result": "inactive; negative"}, {"measurement": "mutagenic call", "setting": "[3]", "result": "inactive; negative"}, {"measurement": "mutagenic call", "setting": "[4]", "result": "inactive; negative"}, {"measurement": "mutagenic call", "setting": "Test System: AMES SALMONELLA TYPHIMURIUM, Strain/Indicator: TA104, Metabolic Activation: NONE, Method: PREINCUBATION (PHOSPHATE-BUFFERED KCL OR SOLUTE-FREE WATER MEDIA)", "result": "inactive; negative"}, {"measurement": "mutagenic call", "setting": "Test System: CHINESE HAMSTER V-79, Strain/Indicator: V-79 (HPRT)/6-THIOGUANINE, Metabolic Activation: NONE", "result": "inactive; negative"}]}]}
